Drawing on patent publication US10499644B2, “Substituted oxadiazoles for combating phytopathogenic fungi” (BASF SE, priority 2015, dated 2019), this text covers diseased leaf area for one compound.

The subject of experiment [1] is Puccinia recondita. The experiment is described as follows: Preventative control of brown rust on wheat (glass house trial). It counts as in vivo, Puccinia recondita on wheat. The settings on record: 63 ppm active compound, sprayed 1 day before inoculation, assessed after 6 days; untreated plants 90%. On the procedure:
(§1) The spray solutions were prepared in several steps: the stock solutions were prepared: a mixture of acetone and/or dimethylsulfoxide and the wetting agent/emulsifier Wettol, which is based on ethoxylated alkylphenoles, in a relation (volume) solvent-emulsifier of 99 to 1 was added to 25 mg of the compound to give a total of 5 ml. Water was then added to total volume of 100 ml. This stock solution was diluted with the described solvent-emulsifier-water mixture to the given concentration.
The first two developed leaves of pot-grown wheat seedling were sprayed to run-off with an aqueous suspension, containing the concentration of active ingredient or their mixture as described below. The next day the plants were inoculated with spores of Puccinia recondita. To ensure the success the artificial inoculation, the plants were transferred to a humid chamber without light and a relative humidity of 95 to 99% and 20 to 24° C. for 24 hours. Then the trial plants were cultivated for 6 days in a greenhouse chamber at 20 to 24° C. and a relative humidity between 65 and 70%. The extent of fungal attack on the leaves was visually assessed as % diseased leaf area.

Experiment [2] deals with Puccinia recondita. The experiment is described as follows: Curative control of brown rust on wheat (glass house trial). It counts as in vivo, Puccinia recondita on wheat. The settings on record: 63 ppm active compound, sprayed after inoculation, assessed after 8 days; untreated plants 90%. Here is the method: as §1
The first two developed leaves of pot-grown wheat seedling were dusted with spores of Puccinia recondita. To ensure the success the artificial inoculation, the plants were transferred to a humid chamber without light and a relative humidity of 95 to 99% and 20 to 24° C. for 24 hours. The next day the plants were cultivated for 3 days in a greenhouse chamber at 20 to 24° C. and a relative humidity between 65 and 70%. Then the plants were sprayed to run-off with an aqueous suspension, containing the concentration of active ingredient or their mixture as described below. The plants were allowed to air-dry. Then the trial plants were cultivated for 8 days in a greenhouse chamber at 20 to 24° C. and a relative humidity between 65 and 70%. The extent of fungal attack on the leaves was visually assessed as % diseased leaf area.

Consider `CC(=O)NC1(c2ccc(-c3noc(C(F)(F)F)n3)cc2)CC1` [Ex-2, N-[1-[4-[5-(trifluoromethyl)-1,2,4-oxadiazol-3-yl]phenyl]-cyclopropyl]acetamide], for which the diseased leaf area with Puccinia recondita [1] worked out at 2%; in the experiment on Puccinia recondita [2], 1%.
